Measurements: ChEMBL document CHEMBL1139457, “Pyrrolo[1,3]benzothiazepine-based serotonin and dopamine receptor antagonists. Molecular modeling, further structure-activity relationship studies, and identification of novel atypical antipsychotic agents” (J Med Chem, 2004)
Values joined by “and” are separate entries in the source; they are usually repeats but may differ in a detail not shown here. Equal entries are not always repeated. Active and inactive are the calls of the source. The rule behind the calls is not given here.

How the values were obtained:
D(2) dopamine receptor = D(2) dopamine receptor (Rattus norvegicus, UniProt P61169); design: species or system Tissue
[1] = target: T1, 5-hydroxytryptamine receptor 2A (Rattus norvegicus, UniProt P14842)
Description: In vitro binding affinity towards 5-hydroxytryptamine 2A receptor in rat tissue homogenate using [3H]ketanserin as radioligand

D(1A) dopamine receptor [2] = target: T2, D(1A) dopamine receptor (Rattus norvegicus, UniProt P18901); design: species or system Tissue
D(3) dopamine receptor [3] = target: T3, D(3) dopamine receptor (Rattus norvegicus, UniProt P19020); assay: biochemical; assay type: cell-based, Sf9
Description: (§1) In vitro binding affinity towards Dopamine receptor D3 in Sf9 cell membranes using [3H]7-OH-DPAT as radioligand

[4] = target: T1, 5-hydroxytryptamine receptor 2A; design: species or system Tissue
D(3) dopamine receptor [5] = target: T3, D(3) dopamine receptor; assay type: cell-based; details: sf9
Description: as §1

D(1A) dopamine receptor [6] = target: T2, D(1A) dopamine receptor; design: species or system Tissue; remark: listed apart in the source
Description: In vitro binding affinity towards Dopamine receptor D1 in rat tissue homogenate using [3H]-SCH- 23390 as radioligand

Mus musculus [7] = species on record: Mus musculus; assay: animal or person; assay type: functional; details: po
Description: In vivo inhibitory activity against 5-MeO-DMT-Induced Head-Twitches in mouse after oral administration

Rattus norvegicus [8] = species on record: Rattus norvegicus; assay: animal or person; assay type: functional; details: po
Description: In vivo inhibition against catalepsy in rats after oral administration evaluated by metal bar

Mus musculus [9] = species on record: Mus musculus
[10] = target: 5-hydroxytryptamine receptor 2A (Homo sapiens, UniProt P28223)
Description: In vitro binding affinity towards 5-hydroxytryptamine 2A receptor in human using [3H]ketanserin as radioligand

Rattus norvegicus [11] = species on record: Rattus norvegicus; assay type: functional; details: dose 0.3 mg/kg, route intraperitoneal
Description: Inhibitory activity tested in rats after intraperitoneal administration at 0.3 mg/kg with saline

[12] = target: T4, Muscarinic acetylcholine receptor M1 (Rattus norvegicus, UniProt P08482); assay: biochemical; assay type: tissue-based, Frontal cortex
T4 sequence (P08482 whole entry): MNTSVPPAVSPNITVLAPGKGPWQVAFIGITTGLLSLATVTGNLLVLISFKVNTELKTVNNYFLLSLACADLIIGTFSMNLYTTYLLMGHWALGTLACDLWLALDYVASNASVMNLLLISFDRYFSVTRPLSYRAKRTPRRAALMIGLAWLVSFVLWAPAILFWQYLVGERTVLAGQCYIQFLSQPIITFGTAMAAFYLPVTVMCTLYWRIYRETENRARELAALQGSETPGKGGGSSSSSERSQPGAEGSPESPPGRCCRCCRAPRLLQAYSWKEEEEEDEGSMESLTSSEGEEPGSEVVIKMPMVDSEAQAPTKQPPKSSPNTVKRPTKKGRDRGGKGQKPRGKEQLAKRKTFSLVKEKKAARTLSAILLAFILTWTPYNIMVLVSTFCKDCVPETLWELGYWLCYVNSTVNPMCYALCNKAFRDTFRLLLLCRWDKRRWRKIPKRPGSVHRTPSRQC
Description: In vitro binding affinity towards M1 receptor of rat frontal cortex homogenate by using radioligand [3H]QNB

[13] = target: T5, Adrenergic receptor alpha-1 (Rattus norvegicus, UniProt P15823+P23944+P43140); assay type: tissue-based, Frontal cortex
T5 sequence (P15823 whole entry): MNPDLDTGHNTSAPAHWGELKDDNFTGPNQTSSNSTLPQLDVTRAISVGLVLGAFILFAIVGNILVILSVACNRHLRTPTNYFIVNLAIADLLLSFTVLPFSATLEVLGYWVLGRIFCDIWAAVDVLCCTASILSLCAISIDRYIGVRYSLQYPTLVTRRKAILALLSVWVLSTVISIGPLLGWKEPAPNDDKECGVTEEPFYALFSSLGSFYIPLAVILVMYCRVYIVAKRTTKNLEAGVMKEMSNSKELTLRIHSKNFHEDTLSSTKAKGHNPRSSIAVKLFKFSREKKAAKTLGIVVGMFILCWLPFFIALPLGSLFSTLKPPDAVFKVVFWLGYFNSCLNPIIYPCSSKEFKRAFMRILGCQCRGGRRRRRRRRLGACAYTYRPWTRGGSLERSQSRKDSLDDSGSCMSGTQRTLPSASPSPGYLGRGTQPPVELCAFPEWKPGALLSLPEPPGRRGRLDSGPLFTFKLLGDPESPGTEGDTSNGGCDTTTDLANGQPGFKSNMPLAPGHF
T5 sequence (P23944 whole entry): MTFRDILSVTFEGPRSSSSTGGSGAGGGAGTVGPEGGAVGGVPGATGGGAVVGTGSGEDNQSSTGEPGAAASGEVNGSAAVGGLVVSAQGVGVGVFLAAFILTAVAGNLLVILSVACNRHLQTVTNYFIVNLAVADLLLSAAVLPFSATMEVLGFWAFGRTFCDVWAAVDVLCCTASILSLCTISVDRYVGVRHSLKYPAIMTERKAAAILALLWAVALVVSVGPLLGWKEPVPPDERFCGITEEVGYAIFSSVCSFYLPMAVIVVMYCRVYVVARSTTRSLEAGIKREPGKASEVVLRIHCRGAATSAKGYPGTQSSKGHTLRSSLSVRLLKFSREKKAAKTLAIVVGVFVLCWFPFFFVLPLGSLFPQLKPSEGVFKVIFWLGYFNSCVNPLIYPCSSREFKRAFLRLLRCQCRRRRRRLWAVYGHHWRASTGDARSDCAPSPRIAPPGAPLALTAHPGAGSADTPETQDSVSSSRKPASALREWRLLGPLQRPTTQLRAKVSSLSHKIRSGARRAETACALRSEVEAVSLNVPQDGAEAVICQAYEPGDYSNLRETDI
T5 sequence (P43140 whole entry): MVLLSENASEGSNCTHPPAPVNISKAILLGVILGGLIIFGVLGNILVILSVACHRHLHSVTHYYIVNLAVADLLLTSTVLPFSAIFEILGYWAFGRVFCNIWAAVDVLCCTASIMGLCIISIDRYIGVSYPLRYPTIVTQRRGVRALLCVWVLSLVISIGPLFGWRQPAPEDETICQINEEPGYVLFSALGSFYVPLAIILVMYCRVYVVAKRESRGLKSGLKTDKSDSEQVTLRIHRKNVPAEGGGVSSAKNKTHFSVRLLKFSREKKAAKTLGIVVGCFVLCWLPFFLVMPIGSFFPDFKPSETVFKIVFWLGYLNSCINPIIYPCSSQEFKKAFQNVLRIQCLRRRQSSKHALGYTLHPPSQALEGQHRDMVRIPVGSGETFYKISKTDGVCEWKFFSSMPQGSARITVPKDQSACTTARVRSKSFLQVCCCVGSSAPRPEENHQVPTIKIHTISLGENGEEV
Description: In vitro binding affinity towards alpha-1 adrenergic receptor in rat frontal cortex homogenate using of [3H]prazosin as radioligand

Rattus norvegicus [14] = species on record: Rattus norvegicus; assay: animal or person; assay type: functional; details: po; remark: listed apart in the source
Description: In vivo inhibition against conditioned avoidance response in rats after oral administration

Rattus norvegicus [15] = species on record: Rattus norvegicus; assay: animal or person; assay type: functional; details: po; remark: listed apart in the source
Description: In vivo inhibition against MK-801 induced hyperactivity in rats after oral administration

Rattus norvegicus [16] = species on record: Rattus norvegicus; assay type: functional
Description: Minimal inhibitory activity tested in rats after intraperitoneal administration

[17] = target: T6, Adrenergic receptor alpha-2 (Rattus norvegicus, UniProt P22086+P19328+P22909); assay type: tissue-based, Frontal cortex
T6 sequence (P22086 whole entry): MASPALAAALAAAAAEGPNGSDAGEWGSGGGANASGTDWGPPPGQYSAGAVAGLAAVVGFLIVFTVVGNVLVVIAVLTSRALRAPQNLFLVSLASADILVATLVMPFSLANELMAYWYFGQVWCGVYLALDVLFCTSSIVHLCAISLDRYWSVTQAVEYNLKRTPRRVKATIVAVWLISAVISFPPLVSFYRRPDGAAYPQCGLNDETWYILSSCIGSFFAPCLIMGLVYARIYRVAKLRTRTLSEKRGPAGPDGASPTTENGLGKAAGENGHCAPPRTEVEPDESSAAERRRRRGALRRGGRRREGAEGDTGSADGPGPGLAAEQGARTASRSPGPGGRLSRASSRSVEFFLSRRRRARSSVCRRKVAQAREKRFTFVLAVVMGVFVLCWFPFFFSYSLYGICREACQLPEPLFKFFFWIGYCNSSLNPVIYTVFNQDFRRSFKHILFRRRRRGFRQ
T6 sequence (P19328 whole entry): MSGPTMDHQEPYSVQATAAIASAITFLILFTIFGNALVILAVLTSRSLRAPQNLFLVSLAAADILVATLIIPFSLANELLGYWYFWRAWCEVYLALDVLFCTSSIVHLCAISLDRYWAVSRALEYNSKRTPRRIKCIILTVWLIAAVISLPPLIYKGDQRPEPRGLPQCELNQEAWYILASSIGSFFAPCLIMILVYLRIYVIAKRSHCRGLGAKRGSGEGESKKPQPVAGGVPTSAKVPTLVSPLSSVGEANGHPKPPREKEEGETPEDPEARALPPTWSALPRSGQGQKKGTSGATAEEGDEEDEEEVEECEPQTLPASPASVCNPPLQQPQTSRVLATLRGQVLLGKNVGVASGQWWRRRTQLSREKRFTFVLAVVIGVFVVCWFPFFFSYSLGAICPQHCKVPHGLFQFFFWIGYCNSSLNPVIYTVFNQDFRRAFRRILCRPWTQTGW
T6 sequence (P22909 whole entry): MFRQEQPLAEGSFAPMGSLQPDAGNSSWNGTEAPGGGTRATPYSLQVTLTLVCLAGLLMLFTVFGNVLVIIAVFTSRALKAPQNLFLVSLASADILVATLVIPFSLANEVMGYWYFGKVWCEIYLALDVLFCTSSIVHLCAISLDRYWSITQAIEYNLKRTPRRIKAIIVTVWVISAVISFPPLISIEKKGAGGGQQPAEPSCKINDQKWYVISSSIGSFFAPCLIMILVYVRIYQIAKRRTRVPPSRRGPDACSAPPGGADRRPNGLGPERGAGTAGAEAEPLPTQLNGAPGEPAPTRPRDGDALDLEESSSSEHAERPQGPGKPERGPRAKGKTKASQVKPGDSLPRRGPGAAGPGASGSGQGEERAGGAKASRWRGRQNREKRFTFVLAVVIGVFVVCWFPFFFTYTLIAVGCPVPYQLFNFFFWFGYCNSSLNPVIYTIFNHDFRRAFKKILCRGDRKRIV
Description: In vitro binding affinity towards alpha-2 adrenergic receptor in rat frontal cortex homogenate using of [3H]clonidine as radioligand

Histamine H1 receptor = Histamine H1 receptor (Rattus norvegicus, UniProt P31390); assay: biochemical; assay type: tissue-based, Frontal cortex
Description: In vitro binding affinity towards Histamine H1 receptor of rat frontal cortex homogenate by using radioligand [3H]pyrilamine

Rattus norvegicus [18] = species on record: Rattus norvegicus; assay: animal or person; assay type: functional; details: po; remark: listed apart in the source
Description: In vivo inhibition of spontaneous locomotory activity tested in rats after oral administration

Mus musculus [19] = species on record: Mus musculus; assay: animal or person; assay type: functional; details: po; remark: listed apart in the source
Description: In vivo inhibitory activity tested in apomorphine climbing mice after oral administration

Chain of D(2) dopamine receptor (P61169 whole entry): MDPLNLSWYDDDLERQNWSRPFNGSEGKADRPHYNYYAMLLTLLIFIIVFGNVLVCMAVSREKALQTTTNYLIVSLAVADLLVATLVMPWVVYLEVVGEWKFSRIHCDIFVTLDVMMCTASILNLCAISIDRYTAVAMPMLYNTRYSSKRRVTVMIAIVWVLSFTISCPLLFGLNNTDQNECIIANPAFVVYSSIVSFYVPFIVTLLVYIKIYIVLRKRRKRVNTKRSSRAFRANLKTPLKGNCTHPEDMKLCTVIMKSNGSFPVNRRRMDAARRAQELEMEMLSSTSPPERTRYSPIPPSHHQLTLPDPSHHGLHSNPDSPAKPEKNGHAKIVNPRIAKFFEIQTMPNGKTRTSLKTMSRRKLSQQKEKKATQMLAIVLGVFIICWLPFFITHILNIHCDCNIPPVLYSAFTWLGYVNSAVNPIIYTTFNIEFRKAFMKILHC
T2 sequence (P18901 whole entry): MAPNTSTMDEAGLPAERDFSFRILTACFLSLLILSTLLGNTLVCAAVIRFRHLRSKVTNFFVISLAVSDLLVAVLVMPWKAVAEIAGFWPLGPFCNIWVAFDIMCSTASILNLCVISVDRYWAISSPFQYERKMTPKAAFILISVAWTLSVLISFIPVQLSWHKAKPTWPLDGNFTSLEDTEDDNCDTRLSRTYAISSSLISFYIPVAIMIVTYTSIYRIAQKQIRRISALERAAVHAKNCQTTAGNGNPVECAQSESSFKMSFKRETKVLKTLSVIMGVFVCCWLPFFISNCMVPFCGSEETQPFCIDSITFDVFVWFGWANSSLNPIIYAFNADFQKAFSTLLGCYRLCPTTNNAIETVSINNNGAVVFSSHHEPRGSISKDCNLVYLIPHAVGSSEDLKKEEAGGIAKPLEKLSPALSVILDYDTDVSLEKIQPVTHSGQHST
T1 sequence (P14842 whole entry): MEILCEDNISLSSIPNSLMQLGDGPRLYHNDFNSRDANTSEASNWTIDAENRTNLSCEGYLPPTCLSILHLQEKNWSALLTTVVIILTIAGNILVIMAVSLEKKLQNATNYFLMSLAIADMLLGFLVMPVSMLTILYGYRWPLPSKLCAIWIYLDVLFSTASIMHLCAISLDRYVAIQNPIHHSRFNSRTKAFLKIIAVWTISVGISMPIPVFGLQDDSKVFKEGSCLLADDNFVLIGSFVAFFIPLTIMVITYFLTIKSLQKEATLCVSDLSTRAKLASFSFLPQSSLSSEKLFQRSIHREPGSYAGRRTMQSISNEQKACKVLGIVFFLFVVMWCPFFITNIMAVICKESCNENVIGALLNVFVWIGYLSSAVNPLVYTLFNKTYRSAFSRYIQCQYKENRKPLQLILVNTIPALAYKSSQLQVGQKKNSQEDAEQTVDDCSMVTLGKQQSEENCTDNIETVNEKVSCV
T3 sequence (P19020 whole entry): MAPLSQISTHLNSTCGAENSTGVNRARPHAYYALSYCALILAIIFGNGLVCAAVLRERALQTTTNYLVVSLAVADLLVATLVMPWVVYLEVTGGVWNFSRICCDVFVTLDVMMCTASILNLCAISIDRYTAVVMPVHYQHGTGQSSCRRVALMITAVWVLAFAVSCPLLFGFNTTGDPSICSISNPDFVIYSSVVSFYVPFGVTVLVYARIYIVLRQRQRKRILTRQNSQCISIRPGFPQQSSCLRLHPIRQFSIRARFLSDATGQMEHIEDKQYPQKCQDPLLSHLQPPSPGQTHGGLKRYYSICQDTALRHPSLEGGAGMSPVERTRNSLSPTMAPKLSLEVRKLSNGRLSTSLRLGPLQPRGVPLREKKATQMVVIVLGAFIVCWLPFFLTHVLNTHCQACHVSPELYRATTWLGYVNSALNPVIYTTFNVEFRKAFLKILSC
Chain of Histamine H1 receptor (P31390 whole entry): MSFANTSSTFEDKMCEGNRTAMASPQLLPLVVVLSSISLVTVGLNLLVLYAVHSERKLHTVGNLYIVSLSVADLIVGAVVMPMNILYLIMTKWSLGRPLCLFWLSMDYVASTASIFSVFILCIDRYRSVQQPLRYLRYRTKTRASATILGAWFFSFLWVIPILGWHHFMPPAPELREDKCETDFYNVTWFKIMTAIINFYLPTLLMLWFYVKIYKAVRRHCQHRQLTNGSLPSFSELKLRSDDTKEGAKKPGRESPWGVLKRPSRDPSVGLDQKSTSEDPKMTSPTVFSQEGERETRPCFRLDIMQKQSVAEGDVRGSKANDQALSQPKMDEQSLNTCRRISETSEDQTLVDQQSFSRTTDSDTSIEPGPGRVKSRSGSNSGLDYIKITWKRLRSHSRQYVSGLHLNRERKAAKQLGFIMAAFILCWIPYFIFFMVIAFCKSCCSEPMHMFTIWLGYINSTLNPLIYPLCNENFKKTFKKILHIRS
Chain of 5-hydroxytryptamine receptor 2A (Homo sapiens, UniProt P28223) (P28223 whole entry): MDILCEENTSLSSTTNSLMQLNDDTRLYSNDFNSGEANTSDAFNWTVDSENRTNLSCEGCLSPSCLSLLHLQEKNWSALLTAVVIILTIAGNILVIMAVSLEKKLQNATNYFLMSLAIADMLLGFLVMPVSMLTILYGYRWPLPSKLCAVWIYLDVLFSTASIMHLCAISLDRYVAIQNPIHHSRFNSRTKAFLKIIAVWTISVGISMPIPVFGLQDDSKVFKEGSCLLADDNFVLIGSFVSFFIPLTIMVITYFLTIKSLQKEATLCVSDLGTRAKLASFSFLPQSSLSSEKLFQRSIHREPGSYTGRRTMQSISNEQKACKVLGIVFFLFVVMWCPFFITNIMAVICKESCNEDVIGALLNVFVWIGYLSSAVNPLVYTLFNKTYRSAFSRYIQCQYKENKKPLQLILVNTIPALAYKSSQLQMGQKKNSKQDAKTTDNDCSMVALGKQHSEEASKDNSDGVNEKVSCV

CN1CCN(C2=C(C=O)n3c(C=O)ccc3Sc3ccccc32)CC1
Ki (D(2) dopamine receptor): Not Active
Ki [1]: 2300 nM
Ki (D(1A) dopamine receptor [2]): Not Active
Ki (D(3) dopamine receptor [3]): > 1000 nM

CN1CCN(C2Cn3c(CO)ccc3Sc3ccc(Cl)cc32)CC1 (configuration not stated)
Ki (D(2) dopamine receptor): Not Active
Ki (D(1A) dopamine receptor [2]): Not Active
Ki [4]: Not Active
Ki (D(3) dopamine receptor [5]): Not Active

CN1CCN(C2=Cn3c(/C=N/O)ccc3Sc3ccccc32)CC1
Ki (D(2) dopamine receptor): Not Active
Ki [1]: 1980 nM
Ki (D(1A) dopamine receptor [2]): Not Active
Ki (D(3) dopamine receptor [3]): 4260 nM

CN1CCN(C2=Cn3c(C=O)ccc3Sc3ccccc32)CC1
Ki [1]: 20 nM
Ki (D(1A) dopamine receptor [6]): 4.28 µM
Ki (D(3) dopamine receptor [3]): 102 nM

CN1CCN([C@@H]2Cn3cccc3Sc3ccc(Cl)cc32)CC1
ED50 (Mus musculus [7]): 14.3 µmol/kg
ED50 (Rattus norvegicus [8]): 115 µmol/kg
ED50 (Mus musculus [9]): inactive

CC(C)OCc1ccc2n1C=C(N1CCN(C)CC1)c1ccccc1S2
Ki [1]: 217 nM
Ki (D(1A) dopamine receptor [6]): 7.6 µM
Ki (D(3) dopamine receptor [3]): 278 nM

COCc1ccc2n1CC(N1CCN(C)CC1)c1cc(Cl)ccc1S2 (configuration not stated)
Ki [1]: 405 nM
Ki (D(1A) dopamine receptor [6]): > 1000 µM
Ki (D(3) dopamine receptor [3]): 316 nM

CN1CCN(C2=Cn3cccc3Sc3ccccc32)CC1
ED50 (Mus musculus [7]): 1.99 mg/kg and 6.7 µmol/kg
Ki [10]: 1.1 nM
Correct responses (Rattus norvegicus [11]): 80.1% and 81.5%
ED50 (Rattus norvegicus [8]): > 100 mg/kg and > 336 µmol/kg
Ki [12]: 2070 nM
Ki [13]: 0.5 nM
ED50 (Rattus norvegicus [14]): 1.1 mg/kg and 3.7 µmol/kg
ED50 (Rattus norvegicus [15]): 1.1 mg/kg and 3.69 µmol/kg
Min ID (Rattus norvegicus [16]): 1 µM/kg
Ki [17]: 1020 nM
Ki (Histamine H1 receptor): 2.7 nM
ED50 (Rattus norvegicus [18]): 0.51 mg/kg and 1.71 µmol/kg
ED50 (Mus musculus [19]): 1.64 mg/kg and 5.5 µmol/kg

O=C1NCCN1CCN1CCN(C2Cn3cccc3Sc3ccc(Cl)cc32)CC1 (configuration not stated)
Ki [1]: 74 nM
Ki (D(1A) dopamine receptor [6]): 1.62 µM
Ki (D(3) dopamine receptor [3]): 66 nM

CN1CCN(C2=Cn3cccc3Sc3ccc(Br)cc32)CC1
Ki [1]: 0.83 nM
Ki (D(1A) dopamine receptor [6]): 0.0034 µM
Ki (D(3) dopamine receptor [3]): 0.25 nM

Cc1ccc2n1C=C(N1CCN(C)CC1)c1ccccc1S2
Ki [12]: 2300 nM
Ki [13]: 4.2 nM
Ki (Histamine H1 receptor): 2.7 nM

CN1CCCN(C2=Cn3cccc3Sc3ccc(Cl)cc32)CC1
Ki [1]: 4.3 nM
Ki (D(1A) dopamine receptor [6]): 0.00587 µM
Ki (D(3) dopamine receptor [3]): 4.3 nM

CN1CCN(C2=Cn3c(CO)ccc3Sc3ccccc32)CC1
Ki [1]: 19 nM
Ki (D(1A) dopamine receptor [6]): 1.74 µM
Ki (D(3) dopamine receptor [3]): 113 nM
